Patent publication US20110009352A1, “RESTORATIVE AGENT FOR ANTIBACTERIAL PEPTIDE PRODUCTION ABILITY” (Minophagen Pharmaceutical Co., LTD., priority 2009, published 2011)

B1: IL-10: interleukin-10 produced by known recombinant DNA technology, 1 ng/ml (Reference Example 19) (protein, UniProt P18893 19-178, looked up)
Interleukin-10: SRGQYSREDNNCTHFPVGQSHMLLELRTAFSQVKTFFQTKDQLDNILLTDSLMQDFKGYLGCQALSEMIQFYLVEVMPQAEKHGPEIKEHLNSLGEKLKTLRMRLRRCHRFLPCENKSKAVEQVKSDFNKLQDQGVYKAMNEFDIFINCIEAYMMIKMKS

How the values were obtained:
Pseudomonas aeruginosa [1] = assay: Survival rate of burn-injured, Pseudomonas aeruginosa-administered mice; type: in vivo, mouse
Experimental: A normal mouse was given a burn injury on the dorsal side, and Pseudomonas aeruginosa was applied to the burn site in an amount of 100 CFU (Colony-Forming Units). Subsequently, glycyrrhizin was intraperitoneally administered to the mouse at 2 hours, 24 hours and 72 hours after the occurrence of burn injury, each time in an amount of 10 mg per kilogram of body weight of the mouse (an amount of 10 mg/kg), and it was checked whether the mouse was alive or dead. The same operation was carried out on 10 mice, and the survival rate of the mice was checked. The horizontal axis of the graph of FIG. 1 represents the number of days (days) after the Pseudomonas aeruginosa infection.
The experiment was carried out in the same manner as in Example 1, except that physiological saline was intraperitoneally administered instead of glycyrrhizin, and the survival rate of the mice was checked.

Pseudomonas aeruginosa [2] = assay: Amount of Pseudomonas aeruginosa in blood and spleen homogenate specimens of infected burn mice (colony counting); type: in vivo; settings: 100 CFU, 10 mg/kg i.p. at 2 and 12 hours after infection, 48 hours after infection
Experimental: A normal mouse was given a burn injury on its dorsal side, and was infected at the burn site with Pseudomonas aeruginosa in an amount of 100 CFU. Subsequently, glycyrrhizin was intraperitoneally administered to the mouse at 2 hours and 12 hours after the infection with Pseudomonas aeruginosa, each time in an amount of 10 mg per kilogram of body weight of the mouse (an amount of 10 mg/kg). Subsequently, after 48 hours from the infection with Pseudomonas aeruginosa, blood and spleen were collected from the mouse, and the amounts of Pseudomonas aeruginosa in the blood specimen and the spleen homogenate specimen were measured by a colony-counting method. The vertical axis of the graph of FIG. 4 represents the amount of Pseudomonas aeruginosa in 1 ml of the specimen (amount of CFU). The experiment was carried out in the same manner as in Example 2, except that physiological saline was intraperitoneally administered instead of glycyrrhizin, and the amounts of Pseudomonas aeruginosa in the blood specimen and the spleen homogenate specimen were measured.

MBD-1 [3] = assay: Amount of MBD-1 in skin tissue homogenate around the burn site (ELISA); type: in vivo; settings: 10 mg/kg i.p. 2 hours after burn, skin collected 0.5-24 hours after burn
Experimental: A normal mouse was given a burn injury on its dorsal side, and was intraperitoneally administered with glycyrrhizin in an amount of 10 mg per kg of body weight of the mouse (an amount of 10 mg/kg), 2 hours after the occurrence of burn injury. The skin tissue was collected from the surroundings of the burn site after 0.5 hours, 6 hours, 12 hours, 18 hours and 24 hours from the occurrence of burn injury, and the collected skin tissues were homogenized. The amount of MBD-1 in the homogenate liquid was measured by ELISA. The horizontal axis of the graph of FIG. 5 represents the time (hours) after the occurrence of burn injury. The experiment was carried out in the same manner as in Example 3, except that physiological saline was intraperitoneally administered instead of glycyrrhizin, and the amount of MBD-1 in the homogenate liquid was measured.

MBD-1 [4] = assay: Amount of MBD-1 in culture supernatant of epidermal keratinocytes and/or Gr-1+CD11b+ cells (Transwell, ELISA); type: cell-based, mouse; settings: 10 μg/ml, 48 hours
Experimental: Epidermal keratinocytes (EK) were collected from the skin of a normal mouse, and a cell solution was prepared to a concentration of 2×10^6 cells/ml using RPMI1640 medium supplemented with 10% inactivated fetal bovine serum. Furthermore, a normal mouse was given a burn injury on its dorsal side, and after 12 hours, Gr-1^+CD11b^+ cells were collected from the skin tissues around the burn site. A cell solution of the collected cells was prepared to a concentration of 5×10^5 cells/ml using RPMI1640 medium supplemented with 10% inactivated fetal bovine serum. In the co-presence of glycyrrhizin in an amount of 10 μg/ml, the epidermal keratinocytes and the Gr-1^+CD11b^+ cells were cultured in a same Transwell at 37° C. After 48 hours from the initiation of culture, the amount of MBD-1 in the supernatant of the culture fluid was measured by ELISA. The experiment was carried out in the same manner as in Example 4, except that glycyrrhizin was not allowed to be co-present, and the amount of MBD-1 in the supernatant of the culture fluid was measured. The experiment was carried out in the same manner as in Example 4, except that only epidermal keratinocytes (2×10^6 cells/ml) were cultured without allowing glycyrrhizin to be co-present, and the amount of MBD-1 in the supernatant of the culture fluid was measured. The experiment was carried out in the same manner as in Example 4, except that only epidermal keratinocytes (2×10^6 cells/ml) were cultured in the co-presence of glycyrrhizin in an amount of 10 μg/ml, and the amount of MBD-1 in the supernatant of the culture fluid was measured. The experiment was carried out in the same manner as in Example 4, except that only Gr-1^+CD11b^+ cells (5×10^5 cells/ml) were cultured without allowing glycyrrhizin to be co-present, and the amount of MBD-1 in the supernatant of the culture fluid was measured.

MBD-3 = assay: Amount of MBD-3 in culture supernatant of LPS-treated epidermal keratinocytes and/or Gr-1+CD11b+ cells (Transwell, ELISA); type: cell-based, mouse; settings: 10 μg/ml, 48 hours
Experimental: Epidermal keratinocytes (EK) were collected from the skin of a normal mouse, and a cell solution was prepared to a concentration of 2×10^6 cells/ml using RPMI1640 medium supplemented with 10% inactivated fetal bovine serum. In order to induce MBD-3, the cells were treated with lipopolysaccharides (LPS) in an amount of 1 μg/ml for 6 hours. Furthermore, a normal mouse was given a burn injury on its dorsal side, and after 12 hours, Gr-1^+CD11b^+ cells were collected from the skin tissues around the burn site. A cell solution of the collected cells was prepared to a concentration of 5×10^5 cells/ml using RPMI1640 medium supplemented with 10% inactivated fetal bovine serum. In the co-presence of glycyrrhizin in an amount of 10 μg/ml, the LPS-treated epidermal keratinocytes and the Gr-1^+CD11b^+ cells were cultured in a same Transwell at 37° C. After 48 hours from the initiation of culture, the amount of MBD-3 in the supernatant of the culture fluid was measured by ELISA. The experiment was carried out in the same manner as in Example 5, except that glycyrrhizin was not allowed to be co-present, and the amount of MBD-3 in the supernatant of the culture fluid was measured. The experiment was carried out in the same manner as in Example 5, except that only LPS-treated epidermal keratinocytes (2×10^6 cells/ml) were cultured without allowing glycyrrhizin to be co-present, and the amount of MBD-3 in the supernatant of the culture fluid was measured. The experiment was carried out in the same manner as in Example 5, except that only LPS-treated epidermal keratinocytes (2×10^6 cells/ml) were cultured in the co-presence of glycyrrhizin in an amount of 10 μg/ml, and the amount of MBD-3 in the supernatant of the culture fluid was measured. The experiment was carried out in the same manner as in Example 5, except that only Gr-1^+CD11b^+ cells (5×10^5 cells/ml) were cultured without allowing glycyrrhizin to be co-present, and the amount of MBD-3 in the supernatant of the culture fluid was measured.

MBD-1 [5] = assay: Quantity-dependency of glycyrrhizin on MBD-1 production ability restoration (Transwell co-culture, ELISA); type: cell-based, mouse; settings: 48 hours
Experimental: Epidermal keratinocytes (2×10^6 cells/ml) were collected from the skin of a normal mouse. Furthermore, a normal mouse was given a burn injury on its dorsal side, and after 12 hours, Gr-1^+CD11b^+ cells (5×10^5 cells/ml) were collected from the skin tissues around the burn site. Using the medium for keratinocyte culture as a medium, and making glycyrrhizin to be co-present in an amount of 1 μg/ml (Example 6), 10 μg/ml (Example 7), 100 μg/ml (Example 8) or 300 μg/ml (Example 9), the epidermal keratinocytes and the Gr-1^+CD11b^+ cells were cultured in a same Transwell at 37° C. The amount of MBD-1 in the supernatant of the culture fluid after 48 hours from the initiation of culture was measured by ELISA. The results are shown in the semilogarithmic graph of FIG. 8. The experiment was carried out in the same manner as in Examples 6 to 9, except that glycyrrhizin was not made to be co-present, and the amount of MBD-1 in the supernatant of the culture fluid was measured. The results are shown in the bar graph of FIG. 8. […] Furthermore, the two graphs share the vertical axis (the amount of MBD-1).

CCL2 = CCL2 production by Gr-1+CD11b+ cells (ELISA); type: cell-based, mouse; settings: 10 μg/ml; 48 hours; vs no glycyrrhizin
Experimental: (§1) A normal mouse was given a burn injury on its dorsal side, and after 12 hours, Gr-1^+CD11b^+ cells (2×10^6 cells/ml) were collected from the skin tissue around the burn site. Using the keratinocyte culture medium as a medium, the Gr-1^+CD11b^+ cells were cultured in a 96-well plate at 37° C. in the co-present of glycyrrhizin in an amount of 10 μg/ml. After 48 hours from the initiation of culture, the amounts of CCL2 and IL-10 in the supernatant of the culture fluid were measured by ELISA. […] The experiment was carried out in the same manner as in Example 10, except that glycyrrhizin was not made to be co-present, and the amounts of CCL2 and IL-10 in the supernatant of the culture fluid were measured.

IL-10 = IL-10 production by Gr-1+CD11b+ cells (ELISA); type: cell-based, mouse; settings: 10 μg/ml; 48 hours; vs no glycyrrhizin
Experimental: as §1

MBD-1 [6] = assay: MBD-1 production of epidermal keratinocytes cultured with recombinant CCL2 and/or IL-10; type: cell-based, mouse; settings: recombinant CCL2 5 ng/ml and/or IL-10 1 ng/ml; 48 hours
Experimental: Epidermal keratinocytes (2×10^6 cells/ml) collected from the skin of a normal mouse were cultured at 37° C. in the co-presence of CCL2 (5 ng/ml) (Reference Example 18), IL-10 (1 ng/ml) (Reference Example 19), or CCL2 (5 ng/ml) and IL-10 (1 ng/ml) (Reference Example 20), which had been produced by a known recombinant DNA technology using a recombinant. The amount of MBD-1 in the supernatant of the culture fluid after 48 hours from the initiation of culture was measured by ELISA.

Row | Molecule | deaths among the mice (survival) (Pseudomonas aeruginosa [1]; 100 CFU P. aeruginosa at burn site, 10 mg/kg i.p. at 2, 24 and 72 hours after burn, up to the 7th day, 10 mice) | survival rate compared with mice not administered with glycyrrhizin (physiological saline) (Pseudomonas aeruginosa [1]; 100 CFU P. aeruginosa, 10 mg/kg i.p. at 2, 24 and 72 hours, after 2 days and on) | amount of Pseudomonas aeruginosa in the blood specimen vs saline mouse (Pseudomonas aeruginosa [2]) | amount of Pseudomonas aeruginosa in the spleen homogenate specimen vs saline mouse (Pseudomonas aeruginosa [2]) | amount of MBD-1 in skin tissue homogenate vs saline mouse (MBD-1 [3]) | amount of MBD-1 in culture supernatant vs no glycyrrhizin (MBD-1 [4]; co-culture of epidermal keratinocytes and Gr-1+CD11b+ cells) | MBD-1 production ability inhibiting effect of Gr-1+CD11b+ cells against epidermal keratinocytes (MBD-1 [4]; co-culture) | MBD-1 production ability promoting effect against epidermal keratinocytes (MBD-1 [4]; epidermal keratinocytes alone) | MBD-3 production ability promoting effect against LPS-treated epidermal keratinocytes (MBD-3; LPS-treated epidermal keratinocytes alone) | amount of MBD-3 in culture supernatant vs no glycyrrhizin (MBD-3; co-culture of LPS-treated epidermal keratinocytes and Gr-1+CD11b+ cells) | MBD-3 production ability inhibiting effect of Gr-1+CD11b+ cells against LPS-treated epidermal keratinocytes (MBD-3; co-culture) | MBD-1 production ability restoring effect (MBD-1 [5]; glycyrrhizin 10 μg/ml (Example 7)) | MBD-1 production ability restoring effect (MBD-1 [5]; glycyrrhizin 100 μg/ml (Example 8)) | MBD-1 production ability restoring effect (MBD-1 [5]; glycyrrhizin 300 μg/ml (Example 9)) | CCL2 production ability of Gr-1+CD11b+ cells (CCL2) | IL-10 production ability of Gr-1+CD11b+ cells (IL-10) | MBD-1 production ability of the epidermal keratinocytes (MBD-1 [6])
1 | CC1(C)[C@@H](O[C@H]2O[C@H](C(=O)O)[C@@H](O)[C@H](O)[C@H]2O[C@@H]2O[C@H](C(=O)O)[C@@H](O)[C@H](O)[C@H]2O)CC[C@]2(C)[C@H]3C(=O)C=C4[C@@H]5C[C@@](C)(C(=O)O)CC[C@]5(C)CC[C@@]4(C)[C@]3(C)CC[C@@H]12 [glycyrrhizin] | none of the individuals died | markedly high | markedly reduced | markedly reduced | larger | larger | reduced this inhibiting effect | did not have an MBD-1 production ability promoting effect | did not have an MBD-3 production ability promoting effect | larger | reduced this inhibiting effect | particularly excellent | particularly excellent | particularly excellent | inhibited | inhibited | –
2 | CCL2: chemokine CCL2 produced by known recombinant DNA technology, 5 ng/ml (Reference Example 18) | – | – | – | – | – | – | – | – | – | – | – | – | – | – | – | – | inhibited
3 | B1 | – | – | – | – | – | – | – | – | – | – | – | – | – | – | – | – | inhibited
